According to the supplement of paper PMC10307832:

How the values were obtained:
Assay in all cases: relative viability (nuclei count vs DMSO), 5 days (fraction); higher = more cells survive
NCI-H23 = test system: NCI-H23
Procedure, shortened: (§1)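 A single step with final 0.05% Triton X-100, 1% formaldehyde and 1 ug/ml Hoechst fixed the cells and stained nuclei 5 days after treatment. Lung cancer cell lines in 1536-well plates had been treated by pin tool the day after seeding with one drug alone or a fixed anchor-drug dose plus five library-drug doses (not always all listed) in √10 steps, and nuclei were counted on 4× images. Relative viability is the ratio of nuclei in treated wells to nuclei in vehicle wells, taken as the median of duplicate plates.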

NCI-H1666 = test system: NCI-H1666
Procedure, shortened: as §1

ChaGo-K-1 = test system: ChaGo-K-1
Procedure, shortened: as §1

LOU-NH91 = test system: LOU-NH91
Procedure, shortened: as §1

EMC-BAC-2 = test system: EMC-BAC-2
Procedure, shortened: as §1

H3255 = test system: H3255
Procedure, shortened: as §1

COR-L 105 = test system: COR-L 105
Procedure, shortened: as §1

NCI-H1792 = test system: NCI-H1792
Procedure, shortened: as §1

SK-MES-1 = test system: SK-MES-1
Procedure, shortened: as §1

NCI-H441 = test system: NCI-H441
Procedure, shortened: as §1

PC-3 [JPC-3] = test system: PC-3 [JPC-3]
Procedure, shortened: as §1

NCI-H520 = test system: NCI-H520
Procedure, shortened: as §1

LK-2 = test system: LK-2
Procedure, shortened: as §1

EKVX = test system: EKVX
Procedure, shortened: as §1

NCI-H1734 = test system: NCI-H1734
Procedure, shortened: as §1

A-427 = test system: A-427
Procedure, shortened: as §1

NCI-H1944 = test system: NCI-H1944
Procedure, shortened: as §1

HCC-366 = test system: HCC-366
Procedure, shortened: as §1

NCI-H1975 = test system: NCI-H1975
Procedure, shortened: as §1

SW 900 = test system: SW 900
Procedure, shortened: as §1

NCI-H1755 = test system: NCI-H1755
Procedure, shortened: as §1

NCI-H2170 = test system: NCI-H2170
Procedure, shortened: as §1

NCI-H596 = test system: NCI-H596
Procedure, shortened: as §1

NCI-H1563 = test system: NCI-H1563
Procedure, shortened: as §1

CC(C)Oc1cc(Nc2nc(N[C@@H](C)c3ccc(F)cn3)ncc2Cl)n[nH]1 [AZ23] + Nc1nc2[nH]cc(CCc3ccc(C(=O)N[C@@H](CCC(=O)O)C(=O)O)cc3)c2c(=O)[nH]1 [Pemetrexed] (partner 0.2 µM) was tested, and the relative viability (NCI-H23; first compound 0.03162 µM) was 0.77, the relative viability (NCI-H23; first compound 0.3162 µM) was 0.992 and the relative viability (NCI-H1666; first compound 0.01 µM) was 0.822. The relative viability (NCI-H1666; first compound 0.03162 µM) was 0.837, the relative viability (NCI-H1666; first compound 0.3162 µM) was 0.771 and the relative viability (ChaGo-K-1; first compound 0.01 µM) was 0.24. For the same compound, the relative viability (ChaGo-K-1; first compound 0.03162 µM) was 0.256, the relative viability (ChaGo-K-1; first compound 0.3162 µM) was 0.269 and the relative viability (LOU-NH91; first compound 0.01 µM) was 0.505. For the same compound, the relative viability (LOU-NH91; first compound 0.03162 µM) was 0.386, the relative viability (LOU-NH91; first compound 0.3162 µM) was 0.394 and the relative viability (EMC-BAC-2; first compound 0.01 µM) was 0.493. For the same compound, the relative viability (EMC-BAC-2; first compound 0.03162 µM) was 0.46, the relative viability (EMC-BAC-2; first compound 0.3162 µM) was 0.442 and the relative viability (H3255; first compound 0.01 µM) was 0.536. The relative viability (H3255; first compound 0.03162 µM) was 0.603, the relative viability (H3255; first compound 0.3162 µM) was 0.577 and the relative viability (COR-L 105; first compound 0.01 µM) was 0.902. It also gave a relative viability (COR-L 105; first compound 0.03162 µM) of 1.24, a relative viability (COR-L 105; first compound 0.3162 µM) of 1.1 and a relative viability (NCI-H1792; first compound 0.01 µM) of 0.813. The relative viability (NCI-H1792; first compound 0.03162 µM) was 0.912, the relative viability (NCI-H1792; first compound 0.3162 µM) was 1 and the relative viability (SK-MES-1; first compound 0.03162 µM) was 1.03. For the same compound, the relative viability (SK-MES-1; first compound 0.3162 µM) was 1.03, the relative viability (NCI-H441; first compound 0.01 µM) was 0.262 and the relative viability (NCI-H441; first compound 0.03162 µM) was 0.242. It also gave a relative viability (NCI-H441; first compound 0.3162 µM) of 0.267, a relative viability (PC-3 [JPC-3]; first compound 0.01 µM) of 0.955 and a relative viability (PC-3 [JPC-3]; first compound 0.03162 µM) of 1.25. The relative viability (PC-3 [JPC-3]; first compound 0.3162 µM) was 1.22, the relative viability (NCI-H520; first compound 0.01 µM) was 0.678 and the relative viability (NCI-H520; first compound 0.03162 µM) was 0.759. For the same compound, the relative viability (NCI-H520; first compound 0.3162 µM) was 0.615, the relative viability (LK-2; first compound 0.03162 µM) was 0.36 and the relative viability (LK-2; first compound 0.3162 µM) was 0.263. For the same compound, the relative viability (EKVX; first compound 0.01 µM) was 0.24, the relative viability (EKVX; first compound 0.03162 µM) was 0.5 and the relative viability (EKVX; first compound 0.3162 µM) was 0.381. For the same compound, the relative viability (NCI-H1734; first compound 0.01 µM) was 0.358, the relative viability (NCI-H1734; first compound 0.03162 µM) was 0.454 and the relative viability (NCI-H1734; first compound 0.3162 µM) was 0.41. For the same compound, the relative viability (A-427; first compound 0.01 µM) was 0.797, the relative viability (A-427; first compound 0.03162 µM) was 1.01 and the relative viability (A-427; first compound 0.3162 µM) was 1.15. The relative viability (NCI-H1944; first compound 0.01 µM) was 0.314, the relative viability (NCI-H1944; first compound 0.03162 µM) was 0.824 and the relative viability (NCI-H1944; first compound 0.3162 µM) was 0.665. It also gave a relative viability (HCC-366; first compound 0.01 µM) of 0.0994, a relative viability (HCC-366; first compound 0.03162 µM) of 0.186 and a relative viability (HCC-366; first compound 0.3162 µM) of 0.171. It also gave a relative viability (NCI-H1975; first compound 0.01 µM) of 0.272, a relative viability (NCI-H1975; first compound 0.03162 µM) of 0.296 and a relative viability (NCI-H1975; first compound 0.3162 µM) of 0.312. For the same compound, the relative viability (SW 900; first compound 0.01 µM) was 0.491, the relative viability (SW 900; first compound 0.3162 µM) was 0.514 and the relative viability (NCI-H1755; first compound 0.01 µM) was 0.401. The relative viability (NCI-H1755; first compound 0.03162 µM) was 0.459, the relative viability (NCI-H1755; first compound 0.3162 µM) was 0.468 and the relative viability (NCI-H2170; first compound 0.01 µM) was 0.261. For the same compound, the relative viability (NCI-H2170; first compound 0.03162 µM) was 0.265, the relative viability (NCI-H2170; first compound 0.3162 µM) was 0.256 and the relative viability (NCI-H596; first compound 0.01 µM) was 0.422. The relative viability (NCI-H596; first compound 0.03162 µM) was 0.55, the relative viability (NCI-H596; first compound 0.3162 µM) was 0.509 and the relative viability (NCI-H1563; first compound 0.01 µM) was 0.69. For the same compound, the relative viability (NCI-H1563; first compound 0.03162 µM) was 0.934 and the relative viability (NCI-H1563; first compound 0.3162 µM) was 0.885.

CC(C)Oc1cc(Nc2nc(N[C@@H](C)c3ccc(F)cn3)ncc2Cl)n[nH]1 [AZ23] + CCNC(=O)c1noc(-c2cc(C(C)C)c(O)cc2O)c1-c1ccc(CN2CCOCC2)cc1 [Luminespib] (partner 0.01 µM) was tested, and the relative viability (NCI-H23; first compound 0.03162 µM) was 0.229, the relative viability (NCI-H23; first compound 0.3162 µM) was 0.204 and the relative viability (NCI-H1666; first compound 0.01 µM) was 1.05. The relative viability (NCI-H1666; first compound 0.03162 µM) was 1.34, the relative viability (NCI-H1666; first compound 0.3162 µM) was 0.943 and the relative viability (ChaGo-K-1; first compound 0.01 µM) was 0.637. It also gave a relative viability (ChaGo-K-1; first compound 0.03162 µM) of 0.687, a relative viability (ChaGo-K-1; first compound 0.3162 µM) of 0.7 and a relative viability (LOU-NH91; first compound 0.01 µM) of 0.387. For the same compound, the relative viability (LOU-NH91; first compound 0.03162 µM) was 0.349, the relative viability (LOU-NH91; first compound 0.3162 µM) was 0.324 and the relative viability (EMC-BAC-2; first compound 0.01 µM) was 1.11. It also gave a relative viability (EMC-BAC-2; first compound 0.03162 µM) of 1.3, a relative viability (EMC-BAC-2; first compound 0.3162 µM) of 1.23 and a relative viability (H3255; first compound 0.01 µM) of 0.574. It also gave a relative viability (H3255; first compound 0.03162 µM) of 0.888, a relative viability (H3255; first compound 0.3162 µM) of 0.854 and a relative viability (COR-L 105; first compound 0.01 µM) of 0.83. It also gave a relative viability (COR-L 105; first compound 0.03162 µM) of 0.872, a relative viability (COR-L 105; first compound 0.3162 µM) of 0.731 and a relative viability (NCI-H1792; first compound 0.01 µM) of 0.305. For the same compound, the relative viability (NCI-H1792; first compound 0.03162 µM) was 0.646, the relative viability (NCI-H1792; first compound 0.3162 µM) was 0.466 and the relative viability (SK-MES-1; first compound 0.03162 µM) was 0.834. It also gave a relative viability (SK-MES-1; first compound 0.3162 µM) of 0.952, a relative viability (NCI-H441; first compound 0.01 µM) of 0.28 and a relative viability (NCI-H441; first compound 0.03162 µM) of 0.344. The relative viability (NCI-H441; first compound 0.3162 µM) was 0.376, the relative viability (PC-3 [JPC-3]; first compound 0.01 µM) was 0.581 and the relative viability (PC-3 [JPC-3]; first compound 0.03162 µM) was 0.582. It also gave a relative viability (PC-3 [JPC-3]; first compound 0.3162 µM) of 0.637, a relative viability (NCI-H520; first compound 0.01 µM) of 0.236 and a relative viability (NCI-H520; first compound 0.03162 µM) of 0.22. For the same compound, the relative viability (NCI-H520; first compound 0.3162 µM) was 0.212, the relative viability (LK-2; first compound 0.01 µM) was 0.185 and the relative viability (LK-2; first compound 0.03162 µM) was 0.189. It also gave a relative viability (LK-2; first compound 0.3162 µM) of 0.177, a relative viability (EKVX; first compound 0.01 µM) of 0.861 and a relative viability (EKVX; first compound 0.03162 µM) of 0.84. The relative viability (EKVX; first compound 0.3162 µM) was 0.924, the relative viability (NCI-H1734; first compound 0.01 µM) was 0.184 and the relative viability (NCI-H1734; first compound 0.03162 µM) was 0.181. For the same compound, the relative viability (NCI-H1734; first compound 0.3162 µM) was 0.169, the relative viability (A-427; first compound 0.01 µM) was 0.844 and the relative viability (A-427; first compound 0.03162 µM) was 1.03. For the same compound, the relative viability (A-427; first compound 0.3162 µM) was 1.03, the relative viability (NCI-H1944; first compound 0.01 µM) was 0.557 and the relative viability (NCI-H1944; first compound 0.03162 µM) was 0.75. For the same compound, the relative viability (NCI-H1944; first compound 0.3162 µM) was 0.726, the relative viability (NCI-H1975; first compound 0.01 µM) was 0.234 and the relative viability (NCI-H1975; first compound 0.03162 µM) was 0.195. The relative viability (NCI-H1975; first compound 0.3162 µM) was 0.223, the relative viability (SW 900; first compound 0.01 µM) was 0.174 and the relative viability (SW 900; first compound 0.03162 µM) was 0.143. It also gave a relative viability (SW 900; first compound 0.3162 µM) of 0.174, a relative viability (NCI-H1755; first compound 0.01 µM) of 0.293 and a relative viability (NCI-H1755; first compound 0.03162 µM) of 0.605. For the same compound, the relative viability (NCI-H1755; first compound 0.3162 µM) was 0.634, the relative viability (NCI-H2170; first compound 0.01 µM) was 1.01 and the relative viability (NCI-H2170; first compound 0.03162 µM) was 0.739. For the same compound, the relative viability (NCI-H2170; first compound 0.3162 µM) was 0.822, the relative viability (NCI-H596; first compound 0.01 µM) was 1.13 and the relative viability (NCI-H596; first compound 0.03162 µM) was 1.06. It also gave a relative viability (NCI-H596; first compound 0.3162 µM) of 0.857, a relative viability (NCI-H1563; first compound 0.01 µM) of 0.544 and a relative viability (NCI-H1563; first compound 0.03162 µM) of 0.571. It also gave a relative viability (NCI-H1563; first compound 0.3162 µM) of 0.596.
